Measured values as given in PubChem BioAssay (NCI).
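Where inhibition never reached the appropriate level, the endpoint shown equals the highest concentration tested. Otherwise, values were interpolated linearly from a five-concentration, 48-hour dose response in 96-well plates. Abbreviation: GI50, concentration required for 50% inhibition of growth. TGI marks complete inhibition of growth.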

Legend:
Assay in all cases: NCI anticancer screen, dose series, 48 h
786-0 renal = system: 786-0 renal
A498 renal = system: A498 renal
A549 NSCLC = system: A549 NSCLC
ACHN renal = system: ACHN renal
BT-549 breast = system: BT-549 breast
CAKI-1 renal = system: CAKI-1 renal
CCRF-CEM leukemia = system: CCRF-CEM leukemia
COLO 205 colon = system: COLO 205 colon
DU-145 prostate = system: DU-145 prostate
EKVX NSCLC = system: EKVX NSCLC
HCC-2998 colon = system: HCC-2998 colon
HCT-116 colon = system: HCT-116 colon
HCT-15 colon = system: HCT-15 colon
HL-60(TB) leukemia = system: HL-60(TB) leukemia
HOP-62 NSCLC = system: HOP-62 NSCLC
HOP-92 NSCLC = system: HOP-92 NSCLC
HS 578T breast = system: HS 578T breast
HT29 colon = system: HT29 colon
IGROV1 ovarian = system: IGROV1 ovarian
K-562 leukemia = system: K-562 leukemia
KM12 colon = system: KM12 colon
LOX IMVI melanoma = system: LOX IMVI melanoma
M14 melanoma = system: M14 melanoma
MALME-3M melanoma = system: MALME-3M melanoma
MCF7 breast = system: MCF7 breast
MDA-MB-231 breast = system: MDA-MB-231 breast
MDA-MB-435 = system: MDA-MB-435
MOLT-4 leukemia = system: MOLT-4 leukemia

Which results are given for `C[C@]12CC[C@H]3[C@@H](CC=C4C[C@@H](O)CC[C@@]43C)[C@@H]1C/C(=C\c1cccc(OCCN3CCOCC3)c1)[C@@H]2O`?
GI50 (786-0 renal): 50.7 µM; TGI (786-0 renal): > 100 µM; GI50 (A498 renal): > 100 µM; TGI (A498 renal): > 100 µM; GI50 (A549 NSCLC): > 100 µM; TGI (A549 NSCLC): > 100 µM; GI50 (ACHN renal): > 100 µM; TGI (ACHN renal): > 100 µM; GI50 (BT-549 breast): 27 µM; TGI (BT-549 breast): 95.1 µM; GI50 (CAKI-1 renal): > 100 µM; TGI (CAKI-1 renal): > 100 µM; GI50 (CCRF-CEM leukemia): 41.1 µM; TGI (CCRF-CEM leukemia): > 100 µM; GI50 (COLO 205 colon): 7.39 µM; TGI (COLO 205 colon): 58.3 µM; GI50 (DU-145 prostate): > 100 µM; TGI (DU-145 prostate): > 100 µM; GI50 (EKVX NSCLC): > 100 µM; TGI (EKVX NSCLC): > 100 µM; GI50 (HCC-2998 colon): > 100 µM; TGI (HCC-2998 colon): > 100 µM; GI50 (HCT-116 colon): 80.6 µM; TGI (HCT-116 colon): > 100 µM; GI50 (HCT-15 colon): 38.9 µM; TGI (HCT-15 colon): > 100 µM; GI50 (HL-60(TB) leukemia): 21.5 µM; TGI (HL-60(TB) leukemia): > 100 µM; GI50 (HOP-62 NSCLC): > 100 µM; TGI (HOP-62 NSCLC): > 100 µM; GI50 (HOP-92 NSCLC): > 100 µM; TGI (HOP-92 NSCLC): > 100 µM; GI50 (HS 578T breast): > 100 µM; TGI (HS 578T breast): > 100 µM; GI50 (HT29 colon): 7.36 µM; TGI (HT29 colon): > 100 µM; GI50 (IGROV1 ovarian): 46 µM; TGI (IGROV1 ovarian): > 100 µM; GI50 (K-562 leukemia): 11.6 µM; TGI (K-562 leukemia): 40.8 µM; GI50 (KM12 colon): > 100 µM; TGI (KM12 colon): > 100 µM; GI50 (LOX IMVI melanoma): > 100 µM; TGI (LOX IMVI melanoma): > 100 µM; GI50 (M14 melanoma): 24.3 µM; TGI (M14 melanoma): 69.2 µM; GI50 (MALME-3M melanoma): 29.8 µM; TGI (MALME-3M melanoma): 65.1 µM; GI50 (MCF7 breast): > 100 µM; TGI (MCF7 breast): > 100 µM; GI50 (MDA-MB-231 breast): 87.6 µM; TGI (MDA-MB-231 breast): > 100 µM; GI50 (MDA-MB-435): 85.1 µM; TGI (MDA-MB-435): > 100 µM; GI50 (MOLT-4 leukemia): 13.3 µM; TGI (MOLT-4 leukemia): 48.7 µM
